According to patent US20180057462A1, “Substituted 2-difluoromethyl-nicotin(thio)carboxanilide derivatives and their use as fungicides” (BAYER CROPSCIENCE AKTIENGESELLSCHAFT, priority 2015, published 2018):

Experiment: LogP by HPLC on reversed phase columns (EEC directive 79/831 Annex V.A8), method [a]
Assay type: physicochemical
Details: LC-UV, acidic range, 0.1% formic acid in water and acetonitrile as eluent (linear gradient 10% to 95% acetonitrile)

LogP[a] | Structure (SMILES)
3.29 | Cc1c(NC(=O)c2cccnc2C(F)F)cccc1OC(C)c1ccc(F)cc1 (stereo not drawn) [Example 49]
2.49 | CO/N=C\C(C)Oc1cccc(NC(=O)c2cccnc2C(F)F)c1C (stereo not drawn) [Example 28]
3.12 | O=C(Nc1cccc(-c2ccc(F)cc2F)c1Cl)c1cccnc1C(F)F [Example 10]
1.98 | Cc1nc(C)c(-c2cccc(NC(=O)c3cccnc3C(F)F)c2C)s1 [Example 112]
3.83 | Cc1c(NC(=O)c2cccnc2C(F)F)cccc1OCc1cccc(Cl)c1Cl [Example 45]
3.44 | CCC(C)Oc1cccc(NC(=O)c2cc(C)cnc2C(F)F)c1C(F)(F)F (stereo not drawn) [Example 95]
3.94 | CCCCC(C)Oc1cccc(NC(=O)c2cccnc2C(F)F)c1C (stereo not drawn) [Example 86]
3.06 | Cc1c(NC(=O)c2cccnc2C(F)F)cccc1OCc1ccc(F)cc1 [Example 36]
3.33 | Cc1c(NC(=O)c2cccnc2C(F)F)cccc1OC(C)c1c(F)cccc1F (stereo not drawn) [Example 52]
3.85 | Cc1c(NC(=O)c2cccnc2C(F)F)cccc1OCCC(C)(C)C [Example 78]
4.01 | Cc1c(NC(=O)c2cccnc2C(F)F)cccc1OC(C)c1ccc(Cl)c(Cl)c1 (stereo not drawn) [Example 48]
3.85 | Cc1c(NC(=O)c2cccnc2C(F)F)cccc1OC(C)Cc1cccc(Cl)c1 (stereo not drawn) [Example 68]

Second part, the molecule before the results:

Structure (SMILES) | LogP[a]
Cc1c(NC(=O)c2cccnc2C(F)F)cccc1OCCc1ccc(C(F)(F)F)cc1 [Example 58] | 3.72
Cc1c(NC(=O)c2cccnc2C(F)F)cccc1OCc1cc(Cl)ccc1Cl [Example 43] | 3.85
Cc1c(NC(=O)c2cccnc2C(F)F)cccc1C1CCCC1 [Example 121] | 3.25
Cc1c(NC(=O)c2cccnc2C(F)F)cccc1OCCc1ccccc1F [Example 62] | 3.31
Cc1c(NC(=O)c2cccnc2C(F)F)cccc1OCCc1cccc(Cl)c1 [Example 65] | 3.61
CCCOCC(C)Oc1cccc(NC(=O)c2cccnc2C(F)F)c1C (stereo not drawn) [Example 22] | 3.04
Cc1c(NC(=O)c2cccnc2C(F)F)cccc1-c1csc(C(C)C)n1 [Example 114] | 2.94
O=C(Nc1cccc(-c2cccc(F)c2)c1Cl)c1cccnc1C(F)F [Example 5] | 3.12
Cc1c(NC(=O)c2cccnc2C(F)F)cccc1OC(C)CC(C)C (stereo not drawn) [Example 15] | 3.79
CCC(C)Oc1cccc(NC(=O)c2cccnc2C(F)F)c1C (stereo not drawn) [Example 11] | 3.02
Cc1c(COC(C)C)cccc1NC(=O)c1cccnc1C(F)F [Example 90] | 2.43
CC(C)Oc1cccc(NC(=O)c2ccc(Cl)nc2C(F)F)c1C(F)(F)F [Example 97] | 3.46
Cc1c(NC(=O)c2cccnc2C(F)F)cccc1OCC=C(Cl)Cl [Example 76] | 3.21
Cc1c(NC(=O)c2cccnc2C(F)F)cccc1OCCc1ccc(Cl)cc1 [Example 66] | 3.68
Cc1c(NC(=O)c2cccnc2C(F)F)cccc1OC(C)c1cccc(Cl)c1 (stereo not drawn) [Example 51] | 3.63
Cc1c(NC(=O)c2cccnc2C(F)F)cccc1OC(C)COCC(C)C (stereo not drawn) [Example 23] | 3.55
Cc1c(NC(=O)c2cccnc2C(F)F)cccc1OCc1cccc(F)c1 [Example 40] | 3.09
Cc1c(NC(=O)c2cccnc2C(F)F)cccc1OCCc1cccc(F)c1 [Example 61] | 3.29
O=C(Nc1cccc(-c2ccc(Cl)cc2)c1Cl)c1cccnc1C(F)F [Example 9] | 3.54
Cc1c(NC(=O)c2cccnc2C(F)F)cccc1N(C)C1CCCC1 [Example 109] | 1.39
Cc1c(NC(=O)c2cccnc2C(F)F)cccc1OCCC1CC1 [Example 26] | 3.17
Cc1c(NC(=O)c2cccnc2C(F)F)cccc1OC(C)COc1ccccc1 (stereo not drawn) [Example 30] | 3.33
Cc1c(NC(=O)c2cccnc2C(F)F)cccc1OC(C)CCC(C)C (stereo not drawn) [Example 87] | 4.26
CCOCC(C)Oc1cccc(NC(=O)c2cccnc2C(F)F)c1C (stereo not drawn) [Example 20] | 2.57
